The values below come from patent US20250312352A1, “GLP-1R MODULATING COMPOUNDS” (Gilead Sciences, Inc., priority 2021, published 2025).

T1 sequence (P43220 24-463): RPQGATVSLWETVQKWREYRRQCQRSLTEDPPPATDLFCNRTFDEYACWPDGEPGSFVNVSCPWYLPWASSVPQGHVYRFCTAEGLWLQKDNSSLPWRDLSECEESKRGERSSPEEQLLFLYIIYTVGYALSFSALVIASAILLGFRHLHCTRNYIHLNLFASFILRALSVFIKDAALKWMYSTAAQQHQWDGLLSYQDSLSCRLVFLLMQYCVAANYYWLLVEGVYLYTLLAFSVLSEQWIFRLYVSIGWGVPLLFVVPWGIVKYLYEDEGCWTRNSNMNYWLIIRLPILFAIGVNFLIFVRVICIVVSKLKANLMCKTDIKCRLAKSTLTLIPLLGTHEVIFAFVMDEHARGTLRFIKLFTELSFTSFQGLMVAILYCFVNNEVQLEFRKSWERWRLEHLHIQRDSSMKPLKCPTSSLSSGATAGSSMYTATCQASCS

This assay addresses T1, GLP-1R (Homo sapiens, UniProt P43220).
T1 construct: host or cells: CHO cells
The experiment in a line: GLP-1R activation cAMP assay (Assay 1 or Assay 2). The note with it: cAMP increase in CHO cells stably expressing GLP-1R; compounds run on one of the two cAMP assays. The format is cell-based. A digest of the protocol: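 CHO cells stably expressing human GLP-1R were incubated 1 h in HBSS/20 mM HEPES/0.1% BSA, then exposed to 10-point agonist dilutions for 30 min at 37 °C. cAMP increase was measured with an HTRF Gs dynamic kit; EC50 from sigmoidal fit of response versus log concentration.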
`COCCn1c(Cc2cc(F)c(-c3cccc(OCc4ccc(-c5cnn(C6CC6)c5)cc4F)n3)cc2F)nc2ccc(C(=O)O)cc21` [Example 225, 2-(4-(6-((4-(1-cyclopropyl-1H-pyrazol-4-yl)-2-fluorobenzyl)oxy)pyridin-2-yl)-2,5-difluorobenzyl)-1-(2-methoxyethyl)-1H-benzo[d]imidazole-6-carboxylic acid] had an EC50 of 0.7 nM.
The result for `O=C(O)c1cc(F)c2nc(Cc3cc(F)c(-c4cccc(OCc5ncc(C#Cc6cncs6)cc5F)n4)cc3F)n(C[C@@H]3CCO3)c2c1` [Example 390, (S)-2-(2,5-difluoro-4-(6-((3-fluoro-5-(thiazol-5-ylethynyl)pyridin-2-yl)methoxy)pyridin-2-yl)benzyl)-4-fluoro-1-(oxetan-2-ylmethyl)-1H-benzo[d]imidazole-6-carboxylic acid] reads 0.235 nM; that for `CNC(=O)c1cc(Cl)c(COc2cccc(-c3cc(F)c(Cc4nc5ccc(C(=O)O)cc5n4C[C@@H]4CCO4)cc3F)n2)cn1` [Example 46, (S)-2-(4-(6-((4-chloro-6-(methylcarbamoyl)pyridin-3-yl)methoxy)pyridin-2-yl)-2,5-difluorobenzyl)-1-(oxetan-2-ylmethyl)-1H-benzo[d]imidazole-6-carboxylic acid], 0.14 nM; that for `O=C(O)c1cc(F)c2nc(Cc3cc(F)c(-c4cccc(OCc5ncc(Cl)s5)n4)cc3F)n(C[C@@H]3CCO3)c2c1` [Example 319, (S)-2-(4-(6-((5-chlorothiazol-2-yl)methoxy)pyridin-2-yl)-2,5-difluorobenzyl)-4-fluoro-1-(oxetan-2-ylmethyl)-1H-benzo[d]imidazole-6-carboxylic acid], 0.034 nM.
For the molecule `CC(F)(F)c1cnc(COc2nc(-c3cc(F)c(Cc4nc5c(F)cc(C(=O)O)cc5n4C[C@@H]4CCO4)c(F)c3F)ccc2F)s1` [Example 378, (S)-2-(4-(6-((5-(1,1-difluoroethyl)thiazol-2-yl)methoxy)-5-fluoropyridin-2-yl)-2,3,6-trifluorobenzyl)-4-fluoro-1-(oxetan-2-ylmethyl)-1H-benzo[d]imidazole-6-carboxylic acid], the EC50 came out at 0.068 nM.
The result for `Cc1nc(COc2cccc(-c3cc(F)c(Cc4nc5ccc(C(=O)O)cc5n4C[C@@H]4CCO4)cc3F)n2)sc1Br` [Example 27, (S)-2-(4-(6-((5-bromo-4-methylthiazol-2-yl)methoxy)pyridin-2-yl)-2,5-difluorobenzyl)-1-(oxetan-2-ylmethyl)-1H-benzo[d]imidazole-6-carboxylic acid] reads 0.08 nM.
The same measure for `CC1(C)COC[C@@H]1n1c(Cc2cc(F)c(-c3cccc(OCc4ccc(C(=O)NC5(C#N)CC5)nc4)n3)cc2F)nc2ccc(C(=O)O)cc21` [Example 202, (R)-2-(4-(6-((6-((1-cyanocyclopropyl)carbamoyl)pyridin-3-yl)methoxy)pyridin-2-yl)-2,5-difluorobenzyl)-1-(4,4-dimethyltetrahydrofuran-3-yl)-1H-benzo[d]imidazole-6-carboxylic acid]: 0.58 nM.
The result for `O=C(O)c1ccc2nc(Cc3cc(F)c(-c4cccc(OCc5nnc(C(F)(F)F)s5)n4)cc3F)n(C[C@@H]3CCO3)c2c1` [Example 25, (S)-2-(2,5-difluoro-4-(6-((5-(trifluoromethyl)-1,3,4-thiadiazol-2-yl)methoxy)pyridin-2-yl)benzyl)-1-(oxetan-2-ylmethyl)-1H-benzo[d]imidazole-6-carboxylic acid] reads 0.53 nM; that for `COc1nnc(COc2nc(-c3cc(F)c(Cc4nc5c(F)cc(C(=O)O)cc5n4CC4(CF)CC4)cc3F)ccc2F)s1` [Example 410, 2-(2,5-difluoro-4-(5-fluoro-6-((5-methoxy-1,3,4-thiadiazol-2-yl)methoxy)pyridin-2-yl)benzyl)-4-fluoro-1-((1-(fluoromethyl)cyclopropyl)methyl)-1H-benzo[d]imidazole-6-carboxylic acid], 0.551 nM; that for `O=C(O)c1cc(F)c2nc(Cc3cc(F)c(-c4ccc(F)c(OCc5ncc(Cl)s5)n4)cc3F)n(C[C@@H]3CCO3)c2c1` [Example 311, (S)-2-(4-(6-((5-chlorothiazol-2-yl)methoxy)-5-fluoropyridin-2-yl)-2,5-difluorobenzyl)-4-fluoro-1-(oxetan-2-ylmethyl)-1H-benzo[d]imidazole-6-carboxylic acid], 0.03 nM.
Molecule `N#Cc1sc(COc2cccc(-c3cc(F)c(Cc4nc5ccc(C(=O)O)cc5n4C[C@@H]4CCO4)cc3F)n2)cc1F` [Example 205, 2-[[4-[6-[(5-cyano-4-fluoro-2-thienyl)methoxy]-2-pyridyl]-2,5-difluoro-phenyl]methyl]-3-[[(2S)-oxetan-2-yl]methyl]benzimidazole-5-carboxylic acid] gave an EC50 of 0.25 nM. This EC50 lies about 8.3-fold higher than the previous one.
The molecule `N#CC1(NC(=O)c2ccc(COc3cccc(-c4cc(F)c(Cc5nc6c(F)cc(C(=O)O)cc6n5C[C@@H]5CCO5)cc4F)n3)cn2)CC1` [Example 197, (S)-2-(4-(6-((6-((1-cyanocyclopropyl)carbamoyl)pyridin-3-yl)methoxy)pyridin-2-yl)-2,5-difluorobenzyl)-4-fluoro-1-(oxetan-2-ylmethyl)-1H-benzo[d]imidazole-6-carboxylic acid] registered an EC50 of 0.08 nM.
As to `N#CCn1ccc(COc2cccc(-c3cc(F)c(Cc4nc5ccc(C(=O)O)cc5n4C[C@@H]4CCO4)cc3F)n2)n1` [Example 238, 2-[[4-[6-[[1-(cyanomethyl)pyrazol-3-yl]methoxy]-2-pyridyl]-2,5-difluoro-phenyl]methyl]-3-[[(2S)-oxetan-2-yl]methyl]benzimidazole-5-carboxylic acid], the EC50 was 8.61 nM.
The result for `O=C(O)c1ccc2nc(Cc3cc(F)c(-c4cccc(OCc5cnco5)n4)cc3F)n(C[C@@H]3CCO3)c2c1` [Example 169, (S)-2-(2,5-difluoro-4-(6-(oxazol-5-ylmethoxy)pyridin-2-yl)benzyl)-1-(oxetan-2-ylmethyl)-1H-benzo[d]imidazole-6-carboxylic acid] reads 11.8 nM; that for `O=C(O)c1ccc2nc(Cc3cc(F)c(-c4cccc(OCc5ncc(C#Cc6cscn6)cc5F)n4)cc3F)n(C[C@@H]3CCO3)c2c1` [Example 292, (S)-2-(2,5-difluoro-4-(6-((3-fluoro-5-(thiazol-4-ylethynyl)pyridin-2-yl)methoxy)pyridin-2-yl)benzyl)-1-(oxetan-2-ylmethyl)-1H-benzo[d]imidazole-6-carboxylic acid], 0.499 nM.
The same measure for `N#CCCNC(=O)c1ccc(COc2cccc(-c3cc(F)c(Cc4nc5ccc(C(=O)O)cc5n4C[C@@H]4CCO4)cc3F)n2)cn1` [Example 375, (S)-2-(4-(6-((6-((2-cyanoethyl)carbamoyl)pyridin-3-yl)methoxy)pyridin-2-yl)-2,5-difluorobenzyl)-1-(oxetan-2-ylmethyl)-1H-benzo[d]imidazole-6-carboxylic acid]: 0.372 nM; for `COc1nnc(COc2nc(-c3cc(F)c(Cc4nc5ccc(C(=O)O)cc5n4CC4(CF)CC4)c(F)c3F)ccc2F)s1` [Example 368, 1-((1-(fluoromethyl)cyclopropyl)methyl)-2-(2,3,6-trifluoro-4-(5-fluoro-6-((5-methoxy-1,3,4-thiadiazol-2-yl)methoxy)pyridin-2-yl)benzyl)-1H-benzo[d]imidazole-6-carboxylic acid]: 0.712 nM.

What is called EC50 is the concentration needed to bring the measured effect to its halfway point.
